Results published in patent US4820727A, “N-acyl-N-naphthoylglycines as aldose reductase inhibitors” (American Home Products Corporation, priority 1987, dated 1989).

Legend:
[1] = test system: Sciatic Nerve Polyol Accumulation; test: Two-Week Streptozocin-Diabetic Rat Model, % lowering of sciatic nerve polyol accumulation; assay type: in vivo, Sprague-Dawley rats; settings: gavage, 14 days
Description: A second in vivo model examined the effect of the compounds of the present invention on sorbitol accumulation in the tissues of 14-day streptozocin (STZ) (Upjohn) diabetic rats.
In each of the studies male Sprague-Dawley rats from Charles River Labs, Kingston, NY, weighing 200 to 250 g, were used. The animals were weighed and observed for 5 days prior to the start of the study.
In each study the rats were randomly assigned by weight into groups of 15 animals except for group I which contained 8 animals. The groups were treated as follows:
Group II: STZ, 110 mg/kg i.p.
Group IV: STZ, 110 mg/kg i.p. followed by various doses of a compound of the present invention given by gavage for 14 days, beginning on the day of induction of diabetes.
Following an overnight fast (water ad lib) the animals in groups II-IV were given by i.p. injection 110 mg STZ per kg body weight. The STZ was dissolved in cold citric acid, 0.03M, pH 4.5 and injected within 5 minutes of being dissolved. Control rats (group I) were injected with buffer only. One hour following the injection, standard laboratory chow (Rodent lab chow 5001, Purina) was placed in the cages.
Two days after STZ injection plasma glucose levels (from the tail vein) were determined following a 4 hour fast. Excluded from the study were animals whose plasma glucose was below 300 mg/dl. Control animals with plasma glucose levels greater than 200 mg/dl were also excluded.
On the morning of the 14th day following STZ injection the animals were fasted 4 hours prior to sacrificing by decapitation. The blood was collected into heparin containing tubes and placed on ice. Both lenses and sciatic nerves were removed immediately, weighed, frozen, and stored at -20° C. until analyzed for sorbitol. The RBCs were collected by centrifugation, the plasma was removed and the cells were washed once with 10 volumes of cold saline. The washed packed RBCs were divided into 1 mL aliquots, extracted with cold perchloric acid and the acid extracts were stored at -20° C. until analyzed for sorbitol.

aldose reductase = molecular target: T1, aldose reductase (Bos taurus, UniProt P16116); test: In vitro aldose reductase inhibition (modified Hayman and Kinoshita procedure, enzyme from bovine lens); assay type: biochemical; settings: for inhibition at 0.04 µM: read-out: % Inhibition IN VITRO 4 × 10^-8 M; for inhibition at 10 µM: read-out: % Inhibition IN VITRO 10^-5 M; for inhibition at 1 µM: read-out: % Inhibition IN VITRO 10^-6 M; for inhibition at 0.1 µM: read-out: % Inhibition IN VITRO 10^-7 M
T1 construct: preparation of the enzyme from bovine lens; from tissue; host or cells: bovine lens
Description: In the present case the procedure of Hayman and Kinoshita was modified in that the final chromatography step was omitted in the preparation of the enzyme from bovine lens.

dulcitol accumulation = test: Galactosemic rats, % lowering of dulcitol (galactitol) accumulation in vivo; design: species or system Sprague-Dawley rats; settings: for % Lowering dulcitol accumulation IN VIVO, D: diaphragm; for % Lowering dulcitol accumulation IN VIVO, D / % Lowering dulcitol accumulation IN VIVO, L: 4 days; for % Lowering dulcitol accumulation IN VIVO, L: lens
Description: Such experiments are exemplified hereinbelow after the listing of the following general comments pertaining to these experiments:
(a) Four or more groups of six male rats, 50-70 g, Sprague-Dawley strain, were used. The first group, the control group, was fed a mixture of laboratory chow (rodent Laboratory Chow, Purina) and glucose at 20% (w/w %) concentration. […] The test compound was either admixed to the diet or administered by gavage. In experiments involving compound administration in the diet, the average dose administered was calculated from the actual food intake of the animals in each group. The concentration of galactose in the diet of the treated groups was the same as that for the untreated galactosemic group.
(b) After four days, the animals were killed by decapitation. The eyeballs were removed and punctured with a razor blade; the freed lenses were rolled gently on filter paper and weighed. The sciatic nerves were dissected as completely as possible and weighed. Both tissues when frozen can be kept up to two weeks before being analyzed for galactitol.
Only two minor reagent changes were made: (a) the rinsing mixture was an aqueous 5% (w/v) trichloroacetic acid solution and (b) the stock solution was prepared by dissolving 25 mg of dulcitol in 100 mL of an aqueous trichloroacetic acid solution. [N.B.: For each experiment the average value found in the tissue from rats fed the glucose diet was subtracted from the individual values found in the corresponding tissue in galactose-fed rats to obtain the amount of polyol accumulated.]
The figures under L, N, and D represent the percentage decrease of galactitol accumulation in the tissues of the lens, sciatic nerve, and diaphragm, respectively, for treated rats as compared to untreated rats.

[2] = test system: Sciatic Nerve Polyol Accumulation; test: Two-Week Streptozocin-Diabetic Rat Model, % lowering of sciatic nerve polyol accumulation; assay type: in vivo, Sprague-Dawley rats; settings: gavage, 14 days; remark: listed apart in the source
[3] = 15 mg/kg, N.S. = not significant
[4] = 5.2 mg/kg, N.S. = not significant
[5] = 27 mg/kg, N.S. = not significant

SMILES: COC(=O)N(CC(=O)O)C(=O)c1c(F)ccc2c(C(F)(F)F)c(OC)ccc12 [Example 1, N-[[2-fluoro-6-methoxy-5-(trifluoromethyl)-1-naphthalenyl]carbonyl]-N-(methoxycarbonyl)glycine]
- % Lowering of Sciatic Nerve Polyol Accumulation, Sorbitol (%) ([1]; 2 mg/kg): 38%
- % Lowering of Sciatic Nerve Polyol Accumulation, Sorbitol (%) ([1]; 5 mg/kg): 39%
- % Lowering of Sciatic Nerve Polyol Accumulation, Sorbitol (%) ([1]; 10 mg/kg): 85%
- % Lowering of Sciatic Nerve Polyol Accumulation, Sorbitol (%) ([1]; 15 mg/kg): 85%
- inhibition at 0.04 µM (aldose reductase): 59%
- inhibition at 10 µM (aldose reductase): 99%
- inhibition at 1 µM (aldose reductase): 95%
- inhibition at 0.1 µM (aldose reductase): 86%
- results in the sciatic nerve compared with tolrestat (dulcitol accumulation; 10 mg/kg/day vs tolrestat at 9 mg/kg/day, sciatic nerve): comparable results
- % Lowering dulcitol accumulation IN VIVO, D (dulcitol accumulation; 5 mg/kg): 52%
- % Lowering dulcitol accumulation IN VIVO, D (dulcitol accumulation; 10 mg/kg): 62%
- % Lowering dulcitol accumulation IN VIVO, L (dulcitol accumulation; 5 mg/kg, N.S. = not significant): N.S.
- % Lowering dulcitol accumulation IN VIVO, L (dulcitol accumulation; 10 mg/kg, N.S. = not significant): N.S.
- % Lowering dulcitol accumulation IN VIVO, L (dulcitol accumulation; 14 mg/kg, N.S. = not significant): N.S.
- % Lowering dulcitol accumulation IN VIVO, L (dulcitol accumulation; [3]): N.S.
- % Lowering of Sciatic Nerve Polyol Accumulation, Fructose (%) ([2]; 2 mg/kg): 22%
- % Lowering of Sciatic Nerve Polyol Accumulation, Fructose (%) ([2]; 5 mg/kg): 36%
- % Lowering of Sciatic Nerve Polyol Accumulation, Fructose (%) ([2]; 10 mg/kg): 72%
- % Lowering of Sciatic Nerve Polyol Accumulation, Fructose (%) ([2]; 15 mg/kg): 86%

SMILES: CCOC(=O)N(CC(=O)O)C(=O)c1c(F)ccc2c(C(F)(F)F)c(OC)ccc12 [Example 3, N-(Ethoxycarbonyl)-N-[[2-fluoro-6-methoxy-5-(trifluoromethyl)-1-naphthalenyl]carbonyl]glycine]
- inhibition at 0.04 µM (aldose reductase): 67%
- inhibition at 10 µM (aldose reductase): 99%
- inhibition at 1 µM (aldose reductase): 95%
- inhibition at 0.1 µM (aldose reductase): 87%
- % Lowering dulcitol accumulation IN VIVO, D (dulcitol accumulation; 15 mg/kg): 59%
- % Lowering dulcitol accumulation IN VIVO, D (dulcitol accumulation; 25 mg/kg): 65%
- % Lowering dulcitol accumulation IN VIVO, L (dulcitol accumulation; [3]): N.S.
- % Lowering dulcitol accumulation IN VIVO, L (dulcitol accumulation; 25 mg/kg, N.S. = not significant): N.S

SMILES: COC(=O)N(CC(N)=O)C(=O)c1c(F)ccc2c(C(F)(F)F)c(OC)ccc12 [Example 2, [[[2-Fluoro-6-methoxy-5-(trifluoromethyl)-1-naphthalenyl]carbonyl](methoxycarbonyl)amino]acetamide]
- inhibition at 10 µM (aldose reductase): 2%
- inhibition at 1 µM (aldose reductase): 0%
- % Lowering dulcitol accumulation IN VIVO, D (dulcitol accumulation; [4]): N.S.
- % Lowering dulcitol accumulation IN VIVO, D (dulcitol accumulation; 10.4 mg/kg): 23%
- % Lowering dulcitol accumulation IN VIVO, L (dulcitol accumulation; [4]): N.S.
- % Lowering dulcitol accumulation IN VIVO, L (dulcitol accumulation; 10.4 mg/kg, N.S. = not significant): N.S.

SMILES: CCOC(=O)N(CC(=O)O)C(=O)c1c(Cl)ccc2c(C(F)(F)F)c(OC)ccc12 [Example 8, N-[[2-Chloro-6-methoxy-5-(trifluoromethyl)-1-naphthalenyl]carbonyl]-N-(ethoxycarbonyl)glycine]
- inhibition at 0.04 µM (aldose reductase): 47%
- inhibition at 0.1 µM (aldose reductase): 79%
- % Lowering dulcitol accumulation IN VIVO, D (dulcitol accumulation; 50 mg/kg): 47%
- % Lowering dulcitol accumulation IN VIVO, L (dulcitol accumulation; 50 mg/kg, N.S. = not significant): N.S.

SMILES: COC(=O)N(CC(=O)O)C(=O)c1c(OCC(F)(F)F)ccc2c(C(F)(F)F)c(OC)ccc12 [Example 6, N-[[6-Methoxy-2-(2,2,2-trifluoroethoxy)-5-(trifluoromethyl)-1-naphthalenyl]carbonyl]-N-(methoxycarbonyl)glycine]
- inhibition at 0.04 µM (aldose reductase): 56%
- inhibition at 0.1 µM (aldose reductase): 83%
- % Lowering dulcitol accumulation IN VIVO, D (dulcitol accumulation; 27 mg/kg): 49%
- % Lowering dulcitol accumulation IN VIVO, L (dulcitol accumulation; [5]): N.S.

SMILES: CCOC(=O)N(CC(=O)O)C(=O)c1c(Br)ccc2c(C(F)(F)F)c(OC)ccc12 [Example 9, N-[[2-Bromo-6-methoxy-5-(trifluoromethyl)-1-naphthalenyl]carbonyl]-N-(ethoxycarbonyl)glycine]
- inhibition at 0.04 µM (aldose reductase): 52%
- inhibition at 10 µM (aldose reductase): 98%
- inhibition at 1 µM (aldose reductase): 93%
- inhibition at 0.1 µM (aldose reductase): 76%
- % Lowering dulcitol accumulation IN VIVO, D (dulcitol accumulation; 43 mg/kg): 27%
- % Lowering dulcitol accumulation IN VIVO, L (dulcitol accumulation; 43 mg/kg, N.S. = not significant): N.S.

SMILES: COC(=O)N(CC(=O)O)C(=O)c1c(Cl)ccc2c(C(F)(F)F)c(OC)ccc12 [Example 4, N-[[2-Chloro-6-methoxy-5-(trifluoromethyl)-1-naphthalenyl]carbonyl]-N-(methoxycarbonyl)glycine]
- inhibition at 0.04 µM (aldose reductase): 57%
- inhibition at 10 µM (aldose reductase): 98%
- inhibition at 1 µM (aldose reductase): 95%
- inhibition at 0.1 µM (aldose reductase): 85%
- % Lowering dulcitol accumulation IN VIVO, D (dulcitol accumulation; 26 mg/kg): 68%
- % Lowering dulcitol accumulation IN VIVO, L (dulcitol accumulation; 26 mg/kg, N.S. = not significant): N.S.

SMILES: CCOC(=O)N(CC(=O)O)C(=O)c1c(OCC(F)(F)F)ccc2c(C(F)(F)F)c(OC)ccc12 [Example 7, N-(Ethoxycarbonyl)-N-[[6-methoxy-2-(2,2,2-trifluoroethoxy)-5-(trifluoromethyl)-1-naphthalenyl]carbonyl]glycine]
- inhibition at 0.04 µM (aldose reductase): 47%
- inhibition at 10 µM (aldose reductase): 98%
- inhibition at 1 µM (aldose reductase): 90%
- inhibition at 0.1 µM (aldose reductase): 78%
- % Lowering dulcitol accumulation IN VIVO, D (dulcitol accumulation; 27 mg/kg): 39%
- % Lowering dulcitol accumulation IN VIVO, L (dulcitol accumulation; [5]): N.S.

SMILES: COc1ccc2c(C(=S)N(C)CC(=O)O)cccc2c1C(F)(F)F [Tolrestat, N-[[6-methoxy-5-(trifluoromethyl)-1-naphthalenyl]thioxo-methyl]-N-methylglycine, reference compound]
- % Lowering of Sciatic Nerve Polyol Accumulation, Sorbitol (%) ([1]; 6 mg/kg): 80%
- % Lowering dulcitol accumulation IN VIVO, L (dulcitol accumulation; 9 mg/kg, N.S. = not significant): N.S.
- % Lowering of Sciatic Nerve Polyol Accumulation, Fructose (%) ([2]; 6 mg/kg): 63%

SMILES: COC(=O)N(CC(=O)O)C(=O)c1c(Br)ccc2c(C(F)(F)F)c(OC)ccc12 [Example 5, N-[[2-Bromo-6-methoxy-5-(trifluoromethyl)-1-naphthalenyl]carbonyl]-N-(methoxycarbonyl)glycine]
- inhibition at 0.04 µM (aldose reductase): 54%
- inhibition at 10 µM (aldose reductase): 97%
- inhibition at 1 µM (aldose reductase): 92%
- inhibition at 0.1 µM (aldose reductase): 77%
- % Lowering dulcitol accumulation IN VIVO, D (dulcitol accumulation; 51 mg/kg): 62%
- % Lowering dulcitol accumulation IN VIVO, L (dulcitol accumulation; 51 mg/kg, N.S. = not significant): N.S.
